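The compound was tested at five concentrations on cells cultured in 96-well plates, with a 48-hour exposure period. The concentration for 50% growth inhibition is given as GI50.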 Activity calls are given as the source filed them. No stated cut-off is given here; in the data, active = GI50 up to about 1.1 µM and inactive = higher.
Legend:
Experiment in all cases: NCI anticancer screen, dose series, 48 h
[1] = system: HL-60
[2] = system: NCI-H226
[3] = system: SNB-19
[4] = system: ACHN
[5] = system: SK-MEL-2
[6] = system: HCC 2998
[7] = system: MOLT-4
[8] = system: M14
[9] = system: SK-MEL-5
[10] = system: SK-MEL-28
[11] = system: HT-29
[12] = system: HCT-116
[13] = system: SNB-75
[14] = system: SW-620
[15] = system: SNB-78
[16] = system: RXF 393
[17] = system: SR
[18] = system: OVCAR-4

Measured: GI50

O=C(N/N=C(/c1nc2ccc(Cl)cc2[nH]c1=O)C(O)c1ccc(Cl)cc1Cl)c1ccncc1 (stereo not drawn)
inactive: [1] > 100 µM | [2] > 100 µM | [3] > 100 µM | [4] > 100 µM | [5] > 100 µM | [6] > 100 µM | [7] > 100 µM | [8] > 100 µM | [9] > 100 µM | [10] > 100 µM | [11] > 100 µM | [12] > 100 µM | [13] > 100 µM | [14] > 100 µM | [15] > 100 µM | [16] > 100 µM

CC(=O)Nc1ccc(-c2nnc(SCC(=O)Nc3ccc(C)cc3)o2)cc1
inactive: [1] 27.8 µM | [2] 27.5 µM | [4] 31.6 µM | [5] 14.5 µM | [7] 32.1 µM | [17] 28 µM | [8] 16.1 µM | [9] 14.7 µM | [10] 16.1 µM | [18] 17.7 µM | [11] 17 µM | [12] 15.7 µM | [13] 16.4 µM | [14] 19.1 µM | [15] 16.6 µM | [16] 19 µM

Cc1cccc2[n+]1[C@H]1[C@H]([C@@H]3O[C@H]1c1ccccc13)[S+]([O-])N2 (stereo partly drawn)
inactive: [1] 24.4 µM | [3] 37.9 µM | [4] 57.7 µM | [5] 25.2 µM | [6] 72.8 µM | [7] 38.2 µM | [10] > 100 µM | [11] 34.4 µM | [12] 30.3 µM | [13] 58.5 µM | [14] > 100 µM | [15] 23.3 µM | [16] 89.1 µM

COc1ccc([C@@H]2OC(=O)C3C2C(=O)O[C@H]3c2ccc(OC)c(OC)c2)cc1OC (stereo partly drawn)
inactive: [1] > 100 µM | [2] > 100 µM | [3] > 100 µM | [4] > 100 µM | [5] > 100 µM | [6] > 100 µM | [7] > 100 µM | [8] > 100 µM | [9] > 100 µM | [10] > 100 µM | [18] > 100 µM | [11] > 100 µM | [12] > 100 µM | [13] 81.5 µM | [14] > 100 µM | [15] > 100 µM | [16] > 100 µM

Cc1ccc(C)c(N2C(=O)C(=O)C(c3nc4ccccc4s3)C(=O)C2=O)c1
inactive: [1] > 100 µM | [2] > 100 µM | [3] > 100 µM | [4] > 100 µM | [5] > 100 µM | [6] > 100 µM | [7] > 100 µM | [8] > 100 µM | [9] > 100 µM | [10] > 100 µM | [18] > 100 µM | [11] > 100 µM | [12] > 100 µM | [13] > 100 µM | [14] > 100 µM | [15] > 100 µM | [16] > 100 µM

Nc1nc2c(ncn2C2OC(CO)C(O)C2N)c(=O)[nH]1 (stereo not drawn)
inactive: [1] 97.9 µM | [3] > 100 µM | [4] > 100 µM | [5] > 100 µM | [6] > 100 µM | [7] > 100 µM | [8] > 100 µM | [10] > 100 µM | [11] > 100 µM | [12] > 100 µM | [13] > 100 µM | [14] > 100 µM | [15] > 100 µM

Cc1cccc(C)c1NC(=O)C(=O)CC(=O)c1cccc([N+](=O)[O-])c1
inactive: [1] > 100 µM | [2] > 100 µM | [3] > 100 µM | [4] > 100 µM | [5] > 100 µM | [7] > 100 µM | [17] > 100 µM | [8] > 100 µM | [9] > 100 µM | [10] > 100 µM | [18] > 100 µM | [11] > 100 µM | [12] > 100 µM | [13] > 100 µM | [14] > 100 µM | [15] > 100 µM

Source: ChEMBL document CHEMBL1201862, “PubChem BioAssay data set” (2004)
